This note sets out measurements from PubChem BioAssay AID248 (DTP/NCI, 2004).

“And” between values parts separate entries of the source, which are not always exact repeats. Equal entries are not always repeated. Inconclusive results and toxic doses are left out.

The test system of the assay is L1210 leukemia ip in BDF1 mice, survival T/C. The experiment in a line: NCI In Vivo Anticancer Drug Screen. Data for tumor model L1210 Leukemia (intraperitoneal) in B6D2F1 (BDF1) mice. As to conditions: endpoint: mean survival time, higher = longer survival. The method, boiled down:
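Transplanted-tumor mice were given test agent; controls received vehicle only. Survival readings from the two groups were divided (treated over control).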

The mark [1] stands for this setting: dose: 100.0 mg/kg/injection, schedule: Q01DX009 (ip), vehicle: Klucel (hydroxypropylcellulose) (HPC).
Where [2] appears, read: dose: 100.0 mg/kg/injection, schedule: Q04DX003 (ip), vehicle: saline.
Where [3] appears, read: dose: 200.0 mg/kg/injection, schedule: Q01DX009 (ip), vehicle: Klucel (hydroxypropylcellulose) (HPC).
The mark [4] stands for this setting: dose: 200.0 mg/kg/injection, schedule: Q04DX003 (ip), vehicle: saline.
Setting [5] is: dose: 400.0 mg/kg/injection, schedule: Q01DX009 (ip), vehicle: Klucel (hydroxypropylcellulose) (HPC).
The mark [6] stands for this setting: dose: 100.0 mg/kg/injection, schedule: Q04DX002 (ip), vehicle: saline with Tween-80.
Setting [7] is: dose: 100.0 mg/kg/injection, schedule: Q01DX001 (ip), vehicle: saline.
The mark [8] stands for this setting: dose: 200.0 mg/kg/injection, schedule: Q01DX001 (ip), vehicle: saline.

Turning to `Brc1ccc(N2N=C(c3ccccc3)N(c3ccc(Br)cc3)N=C2c2ccccc2)cc1`, the T/C by setting is: (dose: 100.0 mg/kg/injection, schedule: Q01DX001 (ip), vehicle: other) 90 % of control; (dose: 100.0 mg/kg/injection, schedule: Q04DX003 (ip), vehicle: other) 104 % of control; (dose: 200.0 mg/kg/injection, schedule: Q01DX001 (ip), vehicle: other) 93 % of control; (dose: 200.0 mg/kg/injection, schedule: Q04DX003 (ip), vehicle: other) 89 % of control; (dose: 400.0 mg/kg/injection, schedule: Q01DX001 (ip), vehicle: other) 95 % of control; (dose: 400.0 mg/kg/injection, schedule: Q04DX003 (ip), vehicle: other) 89 % of control.
Regarding `O=C(C[n+]1ccccc1)N/N=C/c1ccc([N+](=O)[O-])s1`, the T/C is 96 % of control (dose: 12.5 mg/kg/injection, schedule: Q01DX009 (ip), vehicle: water) and 101 % of control (dose: 25.0 mg/kg/injection, schedule: Q01DX009 (ip), vehicle: water).
As to `CCSC(SCC)C(O)C(O)C(O)C(O)CO` (centres undefined), the T/C was 101 % of control and 98 % of control under setting [1]; 101 % of control and 92 % of control (dose: 100.0 mg/kg/injection, schedule: Q04DX003 (ip), vehicle: Klucel (hydroxypropylcellulose) (HPC)); 101 % of control under setting [2]; 106 % of control and 97 % of control under setting [3]; 101 % of control and 95 % of control (dose: 200.0 mg/kg/injection, schedule: Q04DX003 (ip), vehicle: Klucel (hydroxypropylcellulose) (HPC)); 93 % of control under setting [4]. Besides, the T/C was 114 % of control and 97 % of control under setting [5]; 101 % of control and 92 % of control (dose: 400.0 mg/kg/injection, schedule: Q04DX003 (ip), vehicle: Klucel (hydroxypropylcellulose) (HPC)); 92 % of control (dose: 400.0 mg/kg/injection, schedule: Q04DX003 (ip), vehicle: saline).
As to `O=S(=O)(N=C1C(Cl)=C(Cl)C(=NS(=O)(=O)c2ccccc2)C(Cl)=C1Cl)c1ccccc1`, the T/C runs as follows: under setting [1], 98 % of control; under setting [3], 100 % of control; under setting [5], 101 % of control.
Regarding `CO/[N+]([O-])=C\C(=O)N/C=C/C(=O)O`, the T/C is 93 % of control (dose: 13.3 mg/kg/injection, schedule: Q01DX Z (ip), vehicle: carboxymethylcellulose (CMC)) and 101 % of control (dose: 20.0 mg/kg/injection, schedule: Q01DX Z (ip), vehicle: carboxymethylcellulose (CMC)).
Consider `CCC(CCC(C)C1CCC2C3CC=C4CC(OC(=O)Nc5ccccc5)CCC4(C)C3CCC12C)C(C)C` (centres undefined), for which the T/C was 87 % of control under setting [6]; 87 % of control (dose: 200.0 mg/kg/injection, schedule: Q04DX002 (ip), vehicle: saline with Tween-80); 94 % of control (dose: 400.0 mg/kg/injection, schedule: Q04DX002 (ip), vehicle: saline with Tween-80).
Take `Oc1ccc2ccccc2c1N=Nc1ccccn1`: the T/C is 101 % of control (dose: 25.0 mg/kg/injection, schedule: Q04DX002 (ip), vehicle: saline with Tween-80); 98 % of control (dose: 50.0 mg/kg/injection, schedule: Q04DX002 (ip), vehicle: saline with Tween-80); 95 % of control under setting [6].
`CC1CCCN(C(=O)CCCCl)C1` (centres undefined): the T/C (dose: 100.0 mg/kg/injection, schedule: Q04DX002 (ip), vehicle: saline) was 96 % of control; the T/C (dose: 200.0 mg/kg/injection, schedule: Q04DX002 (ip), vehicle: saline) is 99 % of control; the T/C (dose: 400.0 mg/kg/injection, schedule: Q04DX002 (ip), vehicle: saline) was 99 % of control.
For the molecule `CC(=O)NC1CCCC(C)N1` (centres undefined), the T/C was 98 % of control (dose: 50.0 mg/kg/injection, schedule: Q04DX003 (ip), vehicle: saline); 110 % of control under setting [7]; 104 % of control under setting [2]; 100 % of control under setting [8]; 96 % of control under setting [4].
For `O=C(O)Cc1cc2c(cc1[N+](=O)[O-])OCO2`, the T/C is 103 % of control (dose: 50.0 mg/kg/injection, schedule: Q01DX001 (ip), vehicle: saline); 97 % of control under setting [7]; 97 % of control under setting [8]; 103 % of control (dose: 400.0 mg/kg/injection, schedule: Q01DX001 (ip), vehicle: saline).
For the molecule `O=C(Nc1ccc(C2=NCCN2)cc1)c1ccc(C(=O)Nc2ccc(C3=NCCN3)cc2)c([N+](=O)[O-])c1`, the T/C reads like this: (dose: 1.0 mg/kg/injection, schedule: Q#A X Z (ip), vehicle: saline) 103 % of control; (dose: 2.0 mg/kg/injection, schedule: Q01DX Z (ip), vehicle: saline) 112 % of control; (dose: 2.5 mg/kg/injection, schedule: Q## X000 (iv), vehicle: other) 97 % of control; (dose: 3.6 mg/kg/injection, schedule: Q01DX Z (ip), vehicle: methylcellulose (MC)) 163 % of control; (dose: 4.0 mg/kg/injection, schedule: Q01DX Z (ip), vehicle: saline) 116 % of control; (dose: 4.0 mg/kg/injection, schedule: Q#A X Z (ip), vehicle: saline) 184 % of control. Also, the T/C (dose: 5.0 mg/kg/injection, schedule: Q## X000 (iv), vehicle: other) is 96 % of control; the T/C (dose: 5.4 mg/kg/injection, schedule: Q01DX Z (ip), vehicle: methylcellulose (MC)) is 195 % of control; the T/C (dose: 6.0 mg/kg/injection, schedule: Q01DX004 (im), vehicle: olive oil, sesame oil, peanut oil) was 97 % of control; the T/C (dose: 6.0 mg/kg/injection, schedule: Q03DX Z (ip), vehicle: saline) is 115 % of control; the T/C (dose: 8.0 mg/kg/injection, schedule: Q01DX004 (im), vehicle: olive oil, sesame oil, peanut oil) is 98 % of control; the T/C (dose: 8.0 mg/kg/injection, schedule: Q01DX Z (ip), vehicle: methylcellulose (MC)) is 246 % of control. The T/C (dose: 8.0 mg/kg/injection, schedule: Q01DX Z (ip), vehicle: saline) is 204 % of control; the T/C (dose: 10.0 mg/kg/injection, schedule: Q## X000 (iv), vehicle: other) was 120 % of control; the T/C (dose: 12.0 mg/kg/injection, schedule: Q01DX004 (im), vehicle: olive oil, sesame oil, peanut oil) was 101 % of control; the T/C (dose: 12.0 mg/kg/injection, schedule: Q01DX Z (ip), vehicle: methylcellulose (MC)) was 204 % of control; the T/C (dose: 12.0 mg/kg/injection, schedule: Q03DX Z (ip), vehicle: saline) is 123 % of control; the T/C (dose: 16.0 mg/kg/injection, schedule: Q01DX009 (ip), vehicle: saline) was 188 % of control and 198 % of control. For the same molecule, the T/C by setting is: (dose: 18.0 mg/kg/injection, schedule: Q01DX004 (im), vehicle: olive oil, sesame oil, peanut oil) 104 % of control; (dose: 24.0 mg/kg/injection, schedule: Q03DX Z (ip), vehicle: saline) 188 % of control; (dose: 28.0 mg/kg/injection, schedule: Q07DX Z (ip), vehicle: saline) 113 % of control; (dose: 32.0 mg/kg/injection, schedule: Q01DX009 (ip), vehicle: saline) 100 % of control and 103 % of control; (dose: 32.0 mg/kg/injection, schedule: Q01DX Z (ip), vehicle: saline) 86 % of control; (dose: 48.0 mg/kg/injection, schedule: Q03DX Z (ip), vehicle: saline) 172 % of control. For the same molecule, the T/C was 159 % of control (dose: 64.0 mg/kg/injection, schedule: Q01DX Z (sc), vehicle: steriod suspending solution); 100 % of control (dose: 96.0 mg/kg/injection, schedule: Q03DX Z (ip), vehicle: saline); 122 % of control (dose: 125.0 mg/kg/injection, schedule: Q01DX Z (sc), vehicle: steriod suspending solution); 101 % of control (dose: 240.0 mg/kg/injection, schedule: Q01DX Z (oral), vehicle: saline).
`CC(C)([CH2][Sn]([CH2]C(C)(C)c1ccccc1)([CH2]C(C)(C)c1ccccc1)[CH2]C(C)(C)c1ccccc1)c1ccccc1`: the T/C (dose: 5.0 mg/kg/injection, schedule: Q01DX009 (sc), vehicle: olive oil, sesame oil, peanut oil) is 102 % of control; the T/C (dose: 5.0 mg/kg/injection, schedule: Q04DX003 (sc), vehicle: olive oil, sesame oil, peanut oil) is 92 % of control; the T/C (dose: 10.0 mg/kg/injection, schedule: Q01DX009 (sc), vehicle: olive oil, sesame oil, peanut oil) was 107 % of control; the T/C (dose: 10.0 mg/kg/injection, schedule: Q04DX003 (sc), vehicle: olive oil, sesame oil, peanut oil) is 92 % of control; the T/C (dose: 20.0 mg/kg/injection, schedule: Q01DX009 (sc), vehicle: olive oil, sesame oil, peanut oil) was 102 % of control; the T/C (dose: 20.0 mg/kg/injection, schedule: Q04DX003 (sc), vehicle: olive oil, sesame oil, peanut oil) was 92 % of control.
